This passage reports IC50 results from ChEMBL document CHEMBL1201862, “PubChem BioAssay data set” (2004).

The IC50 is the concentration at which inhibition is half-maximal.

The assay concerns the target Envelope glycoprotein gp160 (Human immunodeficiency virus 1, UniProt Q6QLK5). The assay can be described thus: inhibitors of HIV fusion peptide binding, primary screen, biochemical, uHTS, fluorescence dequenching (AID 1986).

Active and inactive are the calls of the source. Cut-off read from the data, not from the text of the source: actives have a measured IC50 and inactives only a lower limit.

Sequence of Envelope glycoprotein gp160 (Q6QLK5 whole entry, the tested form may be a part): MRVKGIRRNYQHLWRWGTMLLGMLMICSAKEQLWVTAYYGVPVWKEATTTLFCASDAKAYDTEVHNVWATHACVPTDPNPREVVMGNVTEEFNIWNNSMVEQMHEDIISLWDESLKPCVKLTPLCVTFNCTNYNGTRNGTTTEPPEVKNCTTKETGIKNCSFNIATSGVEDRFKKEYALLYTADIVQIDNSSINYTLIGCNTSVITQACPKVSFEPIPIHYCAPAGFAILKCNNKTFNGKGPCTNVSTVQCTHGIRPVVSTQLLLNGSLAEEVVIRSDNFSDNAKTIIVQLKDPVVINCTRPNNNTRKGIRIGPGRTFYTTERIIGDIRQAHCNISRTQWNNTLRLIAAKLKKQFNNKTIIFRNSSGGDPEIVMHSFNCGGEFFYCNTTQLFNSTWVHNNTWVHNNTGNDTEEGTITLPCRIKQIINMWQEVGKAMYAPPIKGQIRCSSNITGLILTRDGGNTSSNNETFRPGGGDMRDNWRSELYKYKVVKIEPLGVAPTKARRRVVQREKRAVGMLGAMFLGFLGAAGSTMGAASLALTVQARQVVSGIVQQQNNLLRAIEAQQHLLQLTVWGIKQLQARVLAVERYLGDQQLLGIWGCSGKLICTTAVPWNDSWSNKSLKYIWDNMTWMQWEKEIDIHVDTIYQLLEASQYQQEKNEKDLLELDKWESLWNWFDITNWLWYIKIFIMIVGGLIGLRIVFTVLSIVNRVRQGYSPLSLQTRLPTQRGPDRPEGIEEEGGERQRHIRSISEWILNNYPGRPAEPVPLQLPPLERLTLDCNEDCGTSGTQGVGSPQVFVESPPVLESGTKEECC

`CCc1nnc(NS(=O)(=O)c2ccc(NC(=S)NC(=O)/C=C/c3cccs3)cc2)s1`: the IC50 is 22.6 µM (active).
